Measurements: the METLIN SMRT retention time set (Domingo-Almenara et al. 2019)

Assay: gradient 5% acetonitrile 3 min, to 50% in 2 min, to 85% in 15 min, held 3 min, 100 µL/min
Details: column: Zorbax Extend-C18 2.1 x 50 mm; eluents: water / acetonitrile, 0.1% formic acid
Procedure, shortened: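 Values are retention times taken from adduct peaks that software picked and an analyst inspected. The pure standards were run as mixtures of ~100 molecules on HPLC linked to a quadrupole time-of-flight mass spectrometer, in positive and negative ionization mode. A Zorbax Extend-C18 column (2.1 × 50 mm, 1.8 μm) was used at 100 μL/min with water and acetonitrile, each including 0.1% formic acid.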

| RP-LC retention time | Compound |
| --- | --- |
| 905 s | Cn1cc2nc(SCC(=O)Nc3ccc(Br)cc3)n(CC3CC3)c(=O)c2n1 |
| 661 s | O=C(c1cnccn1)N1CCCCC1c1nc(-c2ccncc2)no1 (centres undefined) |
| 777 s | O=S(=O)(NCc1ccc(F)cc1)c1ccc(N2CCCCS2(=O)=O)cc1 |
| 644 s | CC(=O)Nc1cc(NC(C)=O)ncn1 |
| 605 s | O=C(Cn1c(=O)c2cccn2c2ccc(F)cc21)N1CCN(c2ccccn2)CC1 |
| 1000 s | O=C(CCn1c(=O)oc2ccccc21)N1CC(F)(F)C[C@H]1COc1ccccc1 |
| 1320 s | Cc1sc(-c2cc(C(F)(F)F)on2)cc1S(=O)(=O)NCCC1=CCCCC1 |
| 778 s | Cc1ccccc1N1C(=O)CN(S(C)(=O)=O)CC1(C)C(=O)NCc1ccc(Cl)cc1 (centres undefined) |
| 892 s | COc1ccc(Nc2nccc(C3CCCN(C(=O)C(C)(C)C)C3)n2)cc1 (centres undefined) |
| 891 s | CCOC(=O)c1ccccc1NC(=O)N(Cc1cc(=O)[nH]c2ccccc12)C(C)C |
| 960 s | COCC(=O)N(CC(=O)N1CCc2sccc2C1COc1ccc(Cl)c(C)c1)C1CC1 (centres undefined) |
| 874 s | CC(=O)Cc1nsc(NC(=O)c2ccc(C(C)(C)C)cc2)n1 |
| 560 s | COCC1(O)CCOC2(CCN(Cc3ccc(F)c(Cl)c3)CC2)C1 (centres undefined) |
| 939 s | COc1ccccc1Oc1c(NS(=O)(=O)c2ccc(C(C)(C)C)cc2)nc(-c2ncccn2)nc1OCCO |
| 648 s | O=C(NC1CCCCCCC1)C1CCN(C(=O)c2cc(-c3ccncc3)n[nH]2)CC1 |
| 736 s | CCCNC(=O)C1CCCN(c2ccc(SCC(=O)Nc3ccccc3OCC)nn2)C1 (centres undefined) |
| 611 s | CCCCN(CC)Cc1ccc(CNC(=O)C2CCCN(c3nnc(N4CCCC4=O)s3)C2)o1 (centres undefined) |
| 954 s | COc1ccc(C2CC(=O)N(c3ccc(C)c(F)c3)C(=O)C2)cc1 |
| 779 s | COC(=O)c1cc(OCC(=O)Nc2cccc(OC)c2)c2ccccc2n1 |
| 922 s | COCCNC(=O)C1CN(C(=O)c2ccco2)CC1c1ccc(OC)cc1OC (centres undefined) |
| 588 s | CCCNC(=O)N1CCC(CCOc2cccnc2)CC1 |
| 836 s | CCC(=O)Nc1nc(-c2ccccc2)cs1 |
| 774 s | Cc1ccccc1S(=O)(=O)N1CCCC(CCC(=O)O)C1 (centres undefined) |

| RP-LC retention time | Compound |
| --- | --- |
| 1330 s | CC(C)c1ccc(S(=O)(=O)N2CC(=O)N(C3CCCC3)C3(CCCCC3)C2)cc1 |
| 548 s | O=C(Cc1cccnc1)N1CCC(c2nc(-c3ccncc3)no2)C1 (centres undefined) |
| 720 s | CCc1cc(=O)n(CC(=O)N2CCN(c3ccc(F)cc3)CC2)c(N2CCOCC2)n1 |
| 945 s | CCC1CN(C(=O)Nc2cccc(OC)c2)c2ccccc2O1 (centres undefined) |
| 973 s | CSc1cccc(NC(=O)c2cnc(-c3ccc(F)cc3)nc2-c2ccncc2)c1 |
| 741 s | CCCNC(=O)C1CCCN(c2ccc(SCC(=O)Nc3cccc(C(=O)OCC)c3)nn2)C1 (centres undefined) |
| 721 s | O=c1n(Cc2ccccc2)nc2c(S(=O)(=O)N3CCOCC3)cccn12 |
| 1200 s | O=C(Nc1ccc(-c2nc(-c3ccc(F)cc3)no2)cc1)c1ccc(Br)o1 |
| 603 s | CC(C)(C)NCC(O)COc1cccc2[nH]c(=O)[nH]c12 (centres undefined) |
| 604 s | Cc1cc2n(n1)CCC(=O)N2CCCC(=O)N1CCN(C(=O)c2ccco2)CC1 |
| 886 s | NS(=O)(=O)c1ccc(CCNS(=O)(=O)c2ccccc2-c2nc(-c3ccccc3)no2)cc1 |
| 1040 s | CCOc1ccc(-c2noc(CN3C(=O)C(C)Oc4ccccc43)n2)cc1OC (centres undefined) |
| 1230 s | CC(C)n1c(=O)oc2cc(-c3noc(-c4cc(F)ccc4Cl)n3)ccc21 |
| 675 s | Cc1nn(C(C)C(=O)NCCCN(C)C2CCCCC2)c(=O)c2c(C)n(-c3ccccc3)nc12 (centres undefined) |
| 688 s | CCn1c(=O)c(=O)n(CC(=O)NCc2ccc(C)o2)c2cccnc21 |
| 813 s | CCN(CC)C(C)CN1c2ccccc2Sc2ccccc21 (centres undefined) |
| 1160 s | C=CCn1c(=O)c2ccccc2n(Cc2nc(-c3ccc(CC)cc3)no2)c1=O |
| 914 s | CC(C)n1cc(S(=O)(=O)NCc2ccccc2Cl)c2cccnc21 |
| 1070 s | Cc1cc(C)cc(S(=O)(=O)N2CCC(n3cnc4c(C)cccc4c3=O)CC2)c1 |
| 626 s | CC(C)NC(=O)N1CCC(c2noc(-c3ccncc3)n2)C1 (centres undefined) |
| 639 s | COC[C@@H]1CN(S(=O)(=O)c2ccc(F)cc2)C[C@H]1c1ccncc1 |
| 592 s | O=C(NCCN1CCOCC1)c1nc(Nc2ccc(F)cc2)c2ccccc2n1 |
| 1050 s | CCN1C(=O)COc2ccc(-c3noc(-c4ccc(C#N)cc4)n3)cc21 |

| RP-LC retention time | Compound |
| --- | --- |
| 697 s | COc1nccnc1N1CCC(N(C)C(=O)NCc2cccc(F)c2)C1 (centres undefined) |
| 887 s | CN1C(=O)c2cc(C(=O)Nc3ccccc3Cl)nn2CC1(C)C(=O)NC1CCCCC1 (centres undefined) |
| 1020 s | CCOc1ccc(CNC(=O)c2cc(S(=O)(=O)N3CCCCC3)c(C)n2C)cc1 |
| 718 s | CN(C)c1cnc(-n2cc(NC(=O)NCCc3ccccc3)cn2)nc1 |
| 958 s | CN(C)S(=O)(=O)c1ccc(-c2nnc(C(=O)NCc3cccc(C(F)(F)F)c3)o2)cc1 |
| 855 s | CCOC(=O)C(NC(=O)C1CCCN1C(=O)OCc1ccccc1)C(=O)OCC (centres undefined) |
| 585 s | O=C(NCc1ccccn1)C1CCCN(c2ccc3cc(S(=O)(=O)N4CCCC4)ccc3n2)C1 (centres undefined) |
| 988 s | CC(C)c1noc(-c2cc(=O)n(CC(=O)NCc3ccccc3Cl)c3ccccc23)n1 |
| 595 s | CCc1noc2nc(CCC(=O)NCCCN3CCN(CC)CC3)nc(N3CCCCC3)c12 |
| 820 s | Cc1nnc(-c2cc(C)n(CC(=O)Nc3ccc(Cl)cc3)c2C)o1 |
| 1060 s | COC(=O)c1cn(Cc2cc(C)ccc2C)nc1S(=O)(=O)N(C)c1ccc(C)cc1 |
| 915 s | COc1ccc(-c2nn3c(-c4cc(C(C)C)[nH]n4)nnc3s2)c(OC)c1 |
| 859 s | COc1ccc(OC)c(NC(=O)NC(C)C(=O)N2CCc3ccccc32)c1 (centres undefined) |
| 576 s | Cn1c(N2CCCC(C(=O)NC3CCN(Cc4ccccc4)CC3)C2)cc(=O)n(C)c1=O (centres undefined) |
| 831 s | O=c1c(Nc2ccc(F)c(Cl)c2)nc2ccncc2n1Cc1ccccc1 |
| 707 s | Cc1cccc(NC(=O)CS(=O)(=O)Cc2ccccc2)n1 |
| 583 s | CC(=O)N1CC[C@]2(CO)CN(C(=O)c3ccoc3C)C[C@@H]2C1 |
| 737 s | CC(C)N1CC(c2nc(-c3ccccc3)no2)C2(CCCC2)C1 (centres undefined) |
| 955 s | Cc1cc(-c2nnc(NC(=O)C(C)(C)Oc3ccc(Cl)cc3)o2)c(C)o1 |
| 864 s | CSc1ccc(-c2nc3ncccn3c2Nc2c(C)cccc2C)cc1 |
| 683 s | CCc1cc(C(=O)Nc2ccc(N3CCOCC3)cc2)nc2cc(-c3ccco3)nn12 |
| 833 s | CC(=O)N1CCc2ccccc2C1C(=O)NCc1ccc(C)c(C)c1 (centres undefined) |
| 623 s | CCOC(=O)c1c(S(=O)(=O)N2CCC(C(=O)Nc3cccnc3)CC2)c(C)n(C)c1C |

| RP-LC retention time | Compound |
| --- | --- |
| 762 s | CCN(Cc1ccccc1)C(=O)c1ncn2c1C(=O)N(CC)C(C)(C(=O)NCc1ccc(F)cc1)C2 (centres undefined) |
| 1020 s | Cc1ccsc1C(=O)N1CCC(N2C(=O)C(OCC3CC3)C23CCCCC3)CC1 (centres undefined) |
| 989 s | CCc1ccc(N2CC(c3nc(-c4ccc(OC)c(OC)c4)no3)CC2=O)cc1 (centres undefined) |
| 900 s | c1cc(-c2noc(-c3cccc4[nH]ccc34)n2)cc(-c2ccn[nH]2)c1 |
| 565 s | O=C(NCCc1cccnc1)c1cn(-c2cc(N3CCOCC3)ncn2)cn1 |
| 748 s | CC(C)c1noc(-c2ccnc(-n3cnc(C(=O)N4CCOCC4)c3)c2)n1 |
| 665 s | Cn1c(=O)c(NCCCN2CCCc3ccccc32)nc2ccncc21 |
| 870 s | CC(=O)Nc1onc(C)c1-c1ccc(C)c(S(=O)(=O)NCc2ccc(Br)cc2)c1 |
| 597 s | O=C(c1cccnc1)N1CC(n2cc(COCC3CC3)nn2)C1 |
| 773 s | COc1cccc(NC(=O)N2CCC[C@@H]2C(=O)NCc2csc(-c3cccs3)n2)c1 |
| 1030 s | CC1(c2cccc3ccccc23)OC(=O)c2ccccc21 (centres undefined) |
| 606 s | CCOc1cc(CN2CCn3c(nn(CC4CC4)c3=O)C2)ccc1O |
| 726 s | CC(=O)N1CCc2cc(N3CC(C(=O)Nc4ccc(F)c(F)c4)CC3=O)ccc21 (centres undefined) |
| 1280 s | CCn1c(C(=O)NCCCc2ccccc2)cc2c(-c3cccs3)nn(-c3ccccc3)c21 |
| 673 s | COCCN1C(=O)CCc2cc(NC(=O)C3CCC3)ccc21 |
| 877 s | O=C(CN1C(=O)NC(c2ccc(Cl)cc2)C2=C1COC2=O)Nc1ccc(Br)cc1F (centres undefined) |
| 976 s | CCCNC(=O)c1cnn2c3c(cnc12)CCCCCC3 |
| 1230 s | CCOc1ccc(-c2noc(Cn3nc(-c4ccc(C)c(C)c4)ccc3=O)n2)cc1 |
| 718 s | Cc1ccccc1NC(=O)Cn1cnc2onc(C)c2c1=O |
| 792 s | CC(CNC(=O)C1CCN(S(=O)(=O)c2ccc3c(c2)NC(=O)CO3)CC1)c1ccccc1 (centres undefined) |
